Series [1] is described as follows: absorption via the oral route. Type of series: in vivo.
Series [2] relates to Strep pyogenes 203. The series can be described thus: in vivo oral protection against acute experimental infection in mice. To be noted: Mus musculus, read-out: PD50. From the text:
(§1) In determining such activity, acute experimental infections are produced in mice by the intraperitoneal inoculation of the mice with a standardized culture of the test organism suspended in 5 percent hog gastric mucin. Infection severity is standardized so that the mice receive at least one LD100 dose of the organism (LD100 : the minimum inoculum of organism required to consistently kill 100 percent of the infected, nontreated control mice). The test compound is orally administered at various dosage levels to groups of infected mice at 1/2, 4 and 24 hours post infection. At the end of the test, the activity of the mixture is assessed by counting the number of survivors among treated animals at a given dose. Activity is expressed as the percentage of animals which survive at a given dose, or calculated as a PD50 (dose which protects 50% of the animals from infection).

Series [3] relates to Staph aureus 005. The description is as above. Particulars: read-out: PD50.
Description: as §1

Series [4] relates to Hem. influ. 012. In words: in vitro MIC, tube serial dilution, 24 hour incubation. Type of series: cell-based. As for the experimental part:
(§2) Table I summarizes the results of in vitro MIC (minimum inhibitory concentration) tests. For this standard test, each organism is inoculated into a series of tubes containing nutrient medium and serially diluted concentrations of the antibiotic. The MIC is the lowest concentration of antibiotic which prevents growth of the microorganism over the 24 hour incubation test period.

For series [5], the system named is Staph. aureus 005. Described as above. Type of series: cell-based. As for the experimental part:
as §2

The subject of series [6] is Staph. epid. 111. Described as above. Type of series: cell-based. As to the method: as §2
In series [7] the test system is Strep. pneum. 012. The description is as above. Type of series: cell-based. As to the method: as §2
The subject of series [8] is E. Coli 470. The description is as above. Type of series: cell-based. To be noted: Escherichia coli. As to the method:
as §2

The subject of series [9] is Staph. aureus 052. Described as above. Type of series: cell-based. As to the method:
as §2

Series [10] concerns Strep. faec. 006. Described as above. Type of series: cell-based. As for the experimental part: as §2
Series [11] deals with Strep. pyog. 203. The series is described as above. Type of series: cell-based. As for the experimental part: as §2
Series [12] deals with Hem. influ. 036. The series is described as above. Type of series: cell-based. As to the method: as §2
Series [13] deals with Staph. aureus 400. The description is as above. Type of series: cell-based. As for the experimental part:
as §2

Series [14] has as its system Neiss. Sicca 000. The series is described as above. Type of series: cell-based. As to the method:
as §2

Series [15] relates to Past. mult. 001. The description is as above. Type of series: cell-based. As to the method: as §2
For series [16], the system named is sensitive bacteria. In words: in vivo activity against infections by sensitive bacteria (summary statement). Particulars: mice, oral.
Description: as §1

The test system of series [17] is Gram-positive and Gram-negative bacteria. In words: in vitro antibacterial activity (summary statement). Type of series: cell-based. To be noted: medium spectrum of Gram-positive and Gram-negative bacteria. As for the experimental part:
as §2

Series [18] can be described thus: stability at acid pH. To be noted: acid pH (2.5 to 5.0); unlike erythromycin A. Type of series: physicochemical.
The mark [19] stands for this setting: mice, Strep pyogenes 203, oral dosage 1/2, 4 and 24 hours post infection.
Where [20] appears, read: Staphylococcus aureus, mice, Staph aureus 005, oral dosage 1/2, 4 and 24 hours post infection.
The mark [21] stands for this setting: Staphylococcus aureus, 24 h, Staph. aureus 005, read-out: MIC.
Setting [22] is: Staph. epid. 111, read-out: MIC.
Where [23] appears, read: Strep. pneum. 012, read-out: MIC.
[24] abbreviates: Staphylococcus aureus, 24 h, Staph. aureus 052, read-out: MIC.
Setting [25] is: Strep. faec. 006, read-out: MIC.
[26] abbreviates: Strep. pyog. 203, read-out: MIC.
Setting [27] is: Staphylococcus aureus, 400, 24 h.
[28] abbreviates: Neiss. Sicca 000, read-out: MIC.
The mark [29] stands for this setting: Staphylococcus aureus, 24 h, Staph. aureus 400, read-out: MIC.

In brackets after ≈: the same amount, converted by molar mass. Like-named read-outs stand apart in the source and are kept apart here.

Broadly, the MIC is the least concentration at which growth counts as inhibited. Turning to `CCC1OC(=O)C(C)C(OC2CC(C)(OC(C)=O)C(OC(C)=O)C(C)O2)C(C)C(OC2OC(C)CC(N(C)C)C2O)C(C)(O)CC(C)C(=O)C(C)C(O)C1C` (centres unmarked) [3",4"-Di-O-acetylerythromycin D], the “absorption via the oral route” value in series [1] is given as “high degree of absorption”. In addition, the values for the ED50 in series [2] (setting [19]) and in series [3] (setting [20]) were 15 mg/kg and 27 mg/kg, respectively. Besides, the MIC is greater than 50 mg/L in series [4] (Hem. influ. 012, read-out: MIC); 1.56 mg/L (≈ 1.98 µM) in [5] (setting [21]); 0.39 mg/L (≈ 0.495 µM) in series [6] (setting [22]); 0.1 mg/L (≈ 0.127 µM) in series [7] (setting [23]); 12.5 mg/L (≈ 15.9 µM) in [8] (E. Coli 470, read-out: MIC); 3.12 mg/L (≈ 3.96 µM) in series [9] (setting [24]). The MIC is 1.56 mg/L (≈ 1.98 µM) in series [10] (setting [25]); 0.1 mg/L (≈ 0.127 µM) in [11] (setting [26]); greater than 50 mg/L in [12] (Hem. influ. 036, read-out: MIC); 50 mg/L (≈ 63.5 µM) in [13] (setting [27]); 25 mg/L (≈ 31.7 µM) in series [14] (setting [28]).
Consider `CCC(=O)OC1C(C)OC(OC2C(C)C(=O)OC(CC)C(C)C(O)C(C)C(=O)C(C)CC(C)(O)C(OC3OC(C)CC(N(C)C)C3O)C2C)CC1(C)OC(C)=O` (centres unmarked) [3"-O-Acetyl-4"-O-propionylerythromycin D], for which the MIC in series [4] turned out to be 50 mg/L (≈ 62.3 µM); in series [5] (setting [21]), 0.39 mg/L (≈ 0.486 µM); in [6] (setting [22]), 0.2 mg/L (≈ 0.249 µM); in [7] (setting [23]), 0.05 mg/L (≈ 0.0623 µM); in series [8] (E. Coli 470, read-out: MIC) it was 12.5 mg/L (≈ 15.6 µM); in series [9] (setting [24]), 0.78 mg/L (≈ 0.973 µM). Further, the minimal inhibitory concentration (MIC) in series [10] (setting [25]) was 0.78 mg/L (≈ 0.973 µM); in series [11] (setting [26]) it was 0.05 mg/L (≈ 0.0623 µM); in [15] (Past. mult. 001, read-out: MIC), 12.5 mg/L (≈ 15.6 µM); in series [12] (Hem. influ. 036, read-out: MIC), greater than 50 mg/L; in [13] (setting [29]), 12.5 mg/L (≈ 15.6 µM); in series [14] (setting [28]), 12.5 mg/L (≈ 15.6 µM).
On to `CCC1OC(=O)C(C)C(OC2CC(C)(O)C(OC(C)=O)C(C)O2)C(C)C(OC2OC(C)CC(N(C)C)C2O)C(C)(O)CC(C)C(=O)C(C)C(O)C1C` (centres unmarked) [4"-O-Acetylerythromycin D], for which the ED50 in series [2] (setting [19]) was 40 mg/kg; in series [3] (setting [20]) it was 139 mg/kg. In addition, the minimum inhibitory concentration (MIC) in [4] (Hem. influ. 012, read-out: MIC) is 50 mg/L (≈ 67 µM); in series [5] (setting [21]) it was 3.12 mg/L (≈ 4.18 µM); in series [6] (setting [22]), 0.78 mg/L (≈ 1.05 µM); in [7] (setting [23]), 0.39 mg/L (≈ 0.523 µM); in series [8], 6.25 mg/L (≈ 8.38 µM); in series [9] (setting [24]) it was 6.25 mg/L (≈ 8.38 µM). Moreover, the minimal inhibitory concentration (MIC) in series [10] (setting [25]) was 3.12 mg/L (≈ 4.18 µM); in series [11] (setting [26]) it was 0.2 mg/L (≈ 0.268 µM); in series [15] (Past. mult. 001, read-out: MIC), 25 mg/L (≈ 33.5 µM); in series [12] (Hem. influ. 036, read-out: MIC), greater than 50 mg/L; in [13] (setting [29]) it was greater than 50 mg/L; in [14] (setting [28]), 25 mg/L (≈ 33.5 µM).
`CC[C@H]1OC(=O)[C@H](C)[C@@H](O[C@H]2C[C@@](C)(OC)[C@@H](O)[C@H](C)O2)[C@H](C)[C@@H](O[C@@H]2O[C@H](C)C[C@H](N(C)C)[C@H]2O)[C@](C)(O)C[C@@H](C)C(=O)[C@H](C)[C@@H](O)[C@]1(C)O` [Erythromycin A, reference compound]: the ED50 in series [2] (setting [19]) stood at 25 mg/kg; in series [3] (setting [20]), 64 mg/kg.
Turning to `CCC1OC(=O)C(C)C(OC2CC(C)(O)C(O)C(C)O2)C(C)C(OC2OC(C)CC(N(C)C)C2O)C(C)(O)CC(C)C(=O)C(C)C(O)C1C` (centres unmarked) [Erythromycin D], in series [16], the in vivo activity entry is “exhibit in vivo activity”. In [17], the in vitro activity entry is recorded as “exhibit in vitro activity”. Besides, the “stability at acid pH” value in series [18] is “fairly stable”. The ED50 is 15 mg/kg in [2] (po) and 57 mg/kg in series [3] (Staphylococcus aureus, 005, po). Also, the minimum inhibitory concentration (MIC) in [4] was determined as 25 mg/L (≈ 35.5 µM); in series [5] (Staphylococcus aureus, 005, 24 h) it was 0.39 mg/L (≈ 0.554 µM); in series [6], 0.2 mg/L (≈ 0.284 µM); in series [7], 0.025 mg/L (≈ 0.0355 µM); in series [8], 3.12 mg/L (≈ 4.43 µM); in series [9] (Staphylococcus aureus, 052, 24 h), 0.39 mg/L (≈ 0.554 µM). In addition, the minimal inhibitory concentration (MIC) came to 0.39 mg/L (≈ 0.554 µM) in [10]; 0.025 mg/L (≈ 0.0355 µM) in series [11]; 6.25 mg/L (≈ 8.88 µM) in series [15]; 50 mg/L (≈ 71 µM) in [12]; 6.25 mg/L (≈ 8.88 µM) in series [13] (setting [27]); 6.25 mg/L (≈ 8.88 µM) in series [14].
